Experimental data reported in publication PMC8002452, “Molecular Basis of AmpC β-Lactamase Induction by Avibactam in Pseudomonas aeruginosa: PBP Occupancy, Live Cell Binding Dynamics and Impact on Resistant Clinical Isolates Harboring PDC-X Variants” (International Journal of Molecular Sciences, 2021).

Legend:
[1] = molecular target: T1, PBP1b (Pseudomonas aeruginosa, UniProt G3XD31); test: PBP-binding affinity (IC50), bocillin FL, isolated membranes; design: species or system P. aeruginosa PAO1; conditions: PAO1 membranes 0.5 mg/mL, 30 min, 25 µM bocillin FL; read-out: Mean IC50 ± SD, PBP 1b (converted)
Protocol: (§1) PBP-binding affinity was determined using previously described methods. Briefly, P. aeruginosa PAO1 cultures grown to the midexponential phase (7.6 log10 CFU/mL) were incubated in CAMHB at 37 °C and 180 rpm, washed and centrifuged (3220× g for 10 min at 4 °C). Bacterial pellets were washed in 30 mL of PBS buffer (pH 7.5), resuspended in 10 mL of PBS and sonicated at 40% amplitude for three 2 min bursts (while immersed in an ice bath) and centrifuged at 3220× g for 15 min at 4 °C. PBP-containing membranes were isolated by ultracentrifugation at 150,000× g for 30 min at 4 °C. Total protein concentrations were measured through the Bradford method.
(§2) Subsequently, the fluorescent penicillin bocillin FL was added to a 25 μM final concentration. Labeled PBPs were denatured and separated through 4–15% SDS–polyacrylamide gel electrophoresis. Labeled PBPs were visualized using a Typhoon FLA 9500 biomolecular imager (GE Healthcare Bio-Sciences AB, Uppsala, Sweden) (excitation at 488 nm and emission at 530 nm), and binding was determined from at least three independent experiments using ImageQuant TL software v8.1.0.0 (GE Healthcare Bio-Sciences AB, Uppsala, Sweden).

[2] = molecular target: T2, PBP2 (Pseudomonas aeruginosa, UniProt Q9X6V3); test: as above; design: species or system P. aeruginosa PAO1; conditions: PAO1 membranes 0.5 mg/mL, 30 min, 25 µM bocillin FL; read-out: Mean IC50 ± SD, PBP 2 (converted)
T2 construct: PBP-containing membranes were isolated by ultracentrifugation; endogenous in cells; host or cells: P. aeruginosa PAO1 wild type (membrane preparations or intact cells)
Protocol: as §1, §2

[3] = molecular target: T3, PBP4 (Pseudomonas aeruginosa, UniProt Q9HZG1); test: as above; design: species or system P. aeruginosa PAO1; conditions: PAO1 membranes 0.5 mg/mL, 30 min, 25 µM bocillin FL; read-out: Mean IC50 ± SD, PBP 4 (converted)
Protocol: as §1, §2

[4] = molecular target: T4, PBP5/6 (Pseudomonas aeruginosa, UniProt G3XD74); test: as above; design: species or system P. aeruginosa PAO1; conditions: PAO1 membranes 0.5 mg/mL, 30 min, 25 µM bocillin FL; read-out: Mean IC50 ± SD, PBP 5/6 (converted)
Protocol: as §1, §2

[5] = molecular target: T5, PBP1a (Pseudomonas aeruginosa, UniProt Q07806); test: as above; design: species or system P. aeruginosa PAO1; conditions: PAO1 membranes 0.5 mg/mL, 30 min, 25 µM bocillin FL
T5 construct: PBP-containing membranes were isolated by ultracentrifugation; endogenous in cells; host or cells: P. aeruginosa PAO1 wild type (membrane preparations or intact cells)
Protocol: as §1, §2

[6] = molecular target: T6, PBP3 (Pseudomonas aeruginosa, UniProt G3XD46); test: biochemical; assay type: binding, P. aeruginosa PAO1; conditions: PAO1 membranes 0.5 mg/mL, 30 min, 25 µM bocillin FL
T6 construct: PBP-containing membranes were isolated by ultracentrifugation; endogenous in cells; host or cells: P. aeruginosa PAO1 wild type (membrane preparations or intact cells)
Protocol: as §1, §2

[7] = molecular target: T1, PBP1b; test: Intact cells' time-course of PBP-binding assay; assay type: cell-based, P. aeruginosa PAO1; conditions: 1 h; intact PAO1 cells, 4 µg/mL avibactam, 60 min; read-out: PBP1b fraction bound
Protocol: (§3) Figure 2 Time-course of intact cells and isolated PBP-binding assay. P. aeruginosa PAO1 cultures (a) and isolated PBP-containing membrane preparations (b) were incubated for 15, 30 and 60 min in the presence of 4 µg/mL avibactam (AVI). After isolating PBP-containing membranes, preparations were labeled with 25 µM bocillin FL. The graphs represent the PBP fraction unbound relative to each time control over time. The mean PBP fraction unbound values from at least three independent experiments ± standard deviations are shown.
(§4) P. aeruginosa PAO1 cultures grown to the midexponential phase (7.6 log10 CFU/mL) were preincubated in cation-adjusted Mueller–Hinton broth (CAMHB) at 37 °C (180 rpm) for 20 min. Afterwards, 4 µg/mL of avibactam (AVI) was added, and the bacterial cultures were incubated (37 °C, 180 rpm). Control and treatment samples were taken after 15, 30 and 60 min incubation, kept in ice and centrifuged (3220× g for 10 min at 4 °C). The bacterial pellets were washed in 30 mL phosphate-buffered saline (PBS) (pH 7.5) four times, resuspended in 10 mL of PBS and sonicated by using a Digital Sonifier Unit model S-450D (Branson Ultrasonics Corp., Danbury, CT, USA) at 40% amplitude for three 2 min bursts (while immersed in an ice bath) and centrifuged at 3220× g for 15 min at 4 °C. Membranes containing the PBPs were isolated by ultracentrifugation at 150,000× g for 30 min at 4 °C using an Optima L100XP Ultra centrifuge (Beckman Coulter, Inc., Palo Alto, CA, USA) and were resuspended in 60 μL of PBS. Total protein content was measured using the Quick Start Bradford protein assay kit with bovine serum albumin as a standard (Bio-Rad Laboratories, Hercules, CA, USA), according to the manufacturer’s instructions. To determine the PBP fraction unbound, membranes containing PBPs (20 μL, at 0.5 mg/mL) were labeled with a 25 μM concentration of the fluorescent penicillin bocillin FL [32]. Labeled PBPs were denatured and separated through 4–15% SDS–polyacrylamide gel electrophoresis (Bio-Rad Laboratories, Hercules, CA, USA). Labeled PBPs were visualized using a Typhoon FLA 9500 biomolecular imager (GE Healthcare Bio-Sciences AB, Uppsala, Sweden) (excitation at 488 nm and emission at 530 nm), and binding to different PBPs was determined from at least three independent experiments using ImageQuant TL software v8.1.0.0 (GE Healthcare Bio-Sciences AB, Uppsala, Sweden).

[8] = molecular target: T6, PBP3; test: Intact cells' time-course of PBP-binding assay; assay type: cell-based, P. aeruginosa PAO1; conditions: intact PAO1 cells, 4 µg/mL avibactam, up to 60 min
Protocol: as §3, §4

[9] = molecular target: T2, PBP2; test: Intact cells' time-course of PBP-binding assay; assay type: cell-based, P. aeruginosa PAO1; conditions: intact PAO1 cells, 4 µg/mL avibactam, 60 min
Protocol: as §3, §4

[10] = molecular target: T3, PBP4; test: Intact cells' time-course of PBP-binding assay; assay type: cell-based, P. aeruginosa PAO1; conditions: 1 h; intact PAO1 cells, 4 µg/mL avibactam, 60 min; read-out: PBP4 fraction bound
Protocol: as §3, §4

[11] = molecular target: T4, PBP5/6; test: Intact cells' time-course of PBP-binding assay; assay type: cell-based, P. aeruginosa PAO1; conditions: intact PAO1 cells, 4 µg/mL avibactam, up to 60 min
Protocol: as §3, §4

[12] = molecular target: T5, PBP1a; test: Intact cells' time-course of PBP-binding assay; assay type: cell-based, P. aeruginosa PAO1; conditions: intact PAO1 cells, 4 µg/mL avibactam, up to 60 min
Protocol: as §3, §4

T5 sequence (Q07806 whole entry): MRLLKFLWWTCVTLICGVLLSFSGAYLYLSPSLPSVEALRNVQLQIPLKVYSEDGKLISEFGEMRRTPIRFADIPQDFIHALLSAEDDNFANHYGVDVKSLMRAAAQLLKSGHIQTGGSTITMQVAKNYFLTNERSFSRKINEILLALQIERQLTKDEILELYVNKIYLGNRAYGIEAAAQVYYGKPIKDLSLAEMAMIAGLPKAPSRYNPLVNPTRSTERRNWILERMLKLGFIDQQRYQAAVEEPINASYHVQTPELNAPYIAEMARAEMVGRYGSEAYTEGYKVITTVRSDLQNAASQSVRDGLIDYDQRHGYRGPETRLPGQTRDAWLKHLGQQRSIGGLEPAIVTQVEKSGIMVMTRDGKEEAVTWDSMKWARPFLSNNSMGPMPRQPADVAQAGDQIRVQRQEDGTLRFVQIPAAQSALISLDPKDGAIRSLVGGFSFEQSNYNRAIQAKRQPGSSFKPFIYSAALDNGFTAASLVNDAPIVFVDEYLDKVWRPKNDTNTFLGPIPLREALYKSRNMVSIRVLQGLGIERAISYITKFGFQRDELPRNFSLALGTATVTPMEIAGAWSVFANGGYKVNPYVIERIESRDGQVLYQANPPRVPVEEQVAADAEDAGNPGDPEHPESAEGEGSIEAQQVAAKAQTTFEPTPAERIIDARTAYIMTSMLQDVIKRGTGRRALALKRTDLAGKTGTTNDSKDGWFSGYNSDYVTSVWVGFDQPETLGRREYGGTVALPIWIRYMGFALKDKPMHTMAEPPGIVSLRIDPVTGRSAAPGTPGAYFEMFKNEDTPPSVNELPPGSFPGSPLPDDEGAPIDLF
T6 sequence (G3XD46 whole entry): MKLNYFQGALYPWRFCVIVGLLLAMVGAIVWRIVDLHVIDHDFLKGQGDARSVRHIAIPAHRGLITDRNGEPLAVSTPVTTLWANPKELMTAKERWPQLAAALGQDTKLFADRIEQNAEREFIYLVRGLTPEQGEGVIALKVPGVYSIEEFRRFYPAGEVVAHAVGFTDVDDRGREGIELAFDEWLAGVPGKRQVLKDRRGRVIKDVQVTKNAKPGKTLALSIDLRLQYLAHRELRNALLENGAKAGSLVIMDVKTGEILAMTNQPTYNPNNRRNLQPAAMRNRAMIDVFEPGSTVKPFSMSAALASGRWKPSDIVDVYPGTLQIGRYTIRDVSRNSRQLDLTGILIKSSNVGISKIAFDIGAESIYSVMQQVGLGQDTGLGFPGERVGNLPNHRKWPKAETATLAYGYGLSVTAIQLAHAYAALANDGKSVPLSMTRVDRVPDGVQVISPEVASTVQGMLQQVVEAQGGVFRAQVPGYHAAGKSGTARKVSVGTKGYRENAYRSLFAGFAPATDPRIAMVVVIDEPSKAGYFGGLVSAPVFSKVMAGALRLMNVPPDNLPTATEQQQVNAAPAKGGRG
T3 sequence (Q9HZG1 entry or part of it): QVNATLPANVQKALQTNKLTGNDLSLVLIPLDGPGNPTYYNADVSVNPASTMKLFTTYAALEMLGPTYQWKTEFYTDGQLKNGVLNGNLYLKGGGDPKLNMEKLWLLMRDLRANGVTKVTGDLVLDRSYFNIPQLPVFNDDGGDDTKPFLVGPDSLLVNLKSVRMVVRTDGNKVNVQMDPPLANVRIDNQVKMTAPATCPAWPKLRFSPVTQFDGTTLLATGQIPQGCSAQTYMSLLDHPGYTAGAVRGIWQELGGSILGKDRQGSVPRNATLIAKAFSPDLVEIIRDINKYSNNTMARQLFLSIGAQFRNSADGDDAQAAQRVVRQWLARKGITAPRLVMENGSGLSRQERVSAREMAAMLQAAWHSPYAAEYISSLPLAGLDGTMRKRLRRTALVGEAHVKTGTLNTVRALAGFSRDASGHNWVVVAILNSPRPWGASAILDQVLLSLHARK
T1 sequence (G3XD31 entry or part of it): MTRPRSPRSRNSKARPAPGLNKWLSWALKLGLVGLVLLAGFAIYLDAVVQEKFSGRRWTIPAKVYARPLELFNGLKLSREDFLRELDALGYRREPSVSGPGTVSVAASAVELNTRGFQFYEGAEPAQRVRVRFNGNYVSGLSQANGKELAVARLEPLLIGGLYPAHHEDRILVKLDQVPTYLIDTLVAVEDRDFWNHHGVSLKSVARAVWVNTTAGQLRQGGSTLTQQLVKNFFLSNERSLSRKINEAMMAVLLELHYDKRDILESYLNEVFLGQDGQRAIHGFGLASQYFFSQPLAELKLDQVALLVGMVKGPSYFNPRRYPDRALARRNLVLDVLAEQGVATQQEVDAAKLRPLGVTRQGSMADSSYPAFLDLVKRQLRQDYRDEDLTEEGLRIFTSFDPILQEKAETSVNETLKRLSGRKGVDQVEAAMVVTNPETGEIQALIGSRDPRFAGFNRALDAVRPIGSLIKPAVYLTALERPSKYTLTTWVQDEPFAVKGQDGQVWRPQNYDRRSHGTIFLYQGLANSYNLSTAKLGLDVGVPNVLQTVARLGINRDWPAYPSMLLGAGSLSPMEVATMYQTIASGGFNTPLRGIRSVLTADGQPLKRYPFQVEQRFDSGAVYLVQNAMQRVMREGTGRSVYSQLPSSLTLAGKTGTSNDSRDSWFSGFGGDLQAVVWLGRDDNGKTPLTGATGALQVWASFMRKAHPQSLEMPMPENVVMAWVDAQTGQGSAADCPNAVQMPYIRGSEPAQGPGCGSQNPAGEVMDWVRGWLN
T2 sequence (Q9X6V3 entry or part of it): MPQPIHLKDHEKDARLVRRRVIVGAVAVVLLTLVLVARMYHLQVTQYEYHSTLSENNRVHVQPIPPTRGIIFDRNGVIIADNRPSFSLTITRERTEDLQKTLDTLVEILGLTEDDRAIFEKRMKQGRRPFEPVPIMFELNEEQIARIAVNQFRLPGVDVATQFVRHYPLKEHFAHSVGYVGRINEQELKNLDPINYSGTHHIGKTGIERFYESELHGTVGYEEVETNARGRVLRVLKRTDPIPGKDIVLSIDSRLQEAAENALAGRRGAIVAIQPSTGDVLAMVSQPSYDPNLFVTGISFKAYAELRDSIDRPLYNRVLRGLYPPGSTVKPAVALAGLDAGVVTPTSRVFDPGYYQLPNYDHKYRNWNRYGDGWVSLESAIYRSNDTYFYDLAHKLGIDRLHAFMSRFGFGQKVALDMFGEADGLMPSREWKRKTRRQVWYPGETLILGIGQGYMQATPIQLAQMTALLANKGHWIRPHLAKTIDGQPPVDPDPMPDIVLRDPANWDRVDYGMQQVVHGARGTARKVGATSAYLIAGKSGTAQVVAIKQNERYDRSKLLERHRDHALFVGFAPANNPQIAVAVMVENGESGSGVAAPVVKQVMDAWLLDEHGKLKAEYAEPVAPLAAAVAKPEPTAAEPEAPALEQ
T4 sequence (G3XD74 entry or part of it): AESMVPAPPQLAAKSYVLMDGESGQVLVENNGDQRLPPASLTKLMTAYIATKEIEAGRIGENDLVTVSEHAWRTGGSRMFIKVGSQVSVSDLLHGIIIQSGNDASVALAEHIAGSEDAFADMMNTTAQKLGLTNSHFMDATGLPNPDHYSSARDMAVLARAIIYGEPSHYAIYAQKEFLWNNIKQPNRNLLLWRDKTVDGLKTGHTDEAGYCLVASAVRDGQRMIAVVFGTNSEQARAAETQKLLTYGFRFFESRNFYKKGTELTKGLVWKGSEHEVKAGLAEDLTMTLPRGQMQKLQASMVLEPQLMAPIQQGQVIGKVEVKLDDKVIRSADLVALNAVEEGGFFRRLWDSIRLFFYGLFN

NC(=O)[C@@H]1CC[C@@H]2CN1C(=O)N2OS(=O)(=O)O [Avibactam]
IC50 [1]: 13.6 µM
IC50 [2]: 15.8 µM
IC50 [3]: 11.7 µM
IC50 [4]: 8.29 µM
Mean IC50 ± SD, PBP 1a [5]: no PBP1a and 3 binding was detected
IC50 ([5]; read-out: Mean IC50 ± SD, PBP 1a (converted)): > 121 µM
Mean IC50 ± SD, PBP 3 [6]: no PBP1a and 3 binding was detected
IC50 ([6]; read-out: Mean IC50 ± SD, PBP 3 (converted)): > 121 µM
inhibition at 4 µg/mL [7]: 20%
PBP3 binding in whole-cell assay [8]: No significant
PBP2 fraction bound [9]: 20%
inhibition at 4 µg/mL [10]: ≤ 50%
PBP5/6 binding in whole-cell assay [11]: No significant
PBP1a binding in whole-cell assay [12]: No significant
